The record followed here is ChEMBL document CHEMBL5579840, “Optimization of diastereomeric dihydropyridines as antimalarials” (Eur J Med Chem, 2024).

Calls of active or inactive are those of the source. The rule behind the calls is not given here.

The subject of assay [1] is Plasmodium falciparum. Nature of the assay: Antiplasmodial activity against chloroquine-sensitive Plasmodium falciparum 3D7. The class given is functional, organism-based.
For assay [2], the system named is Plasmodium falciparum. Nature of the assay: Antimalarial activity against Plasmodium falciparum W2 infected in RBC assessed as reduction in parasitemia at 700 nM measured immediately by YOYO1 staining based LSR II flow cytometer. The class given is functional, organism-based.
For assay [3], the system named is Plasmodium falciparum. Nature of the assay: Antimalarial activity against Plasmodium falciparum W2 infected in RBC assessed as inhibition of growth incubated for 22 days by YOYO1 staining based LSR II flow cytometer. The format is functional, organism-based. The conditions noted are these: W2, Erythrocyte, 528 h. For orientation: In flow cytometry, cells or beads pass a laser one at a time.

For assay [4], the system named is Plasmodium falciparum. Put plainly: Antimalarial activity against Plasmodium falciparum W2 infected in RBC assessed as inhibition of parasite growth incubated for 72 hrs by YOYO1 staining based LSR II flow cytometer. The class given is functional, organism-based. The conditions noted are these: W2, Erythrocyte.
The test system of assay [5] is Plasmodium falciparum. Put plainly: Fold resistance, ratio of EC50 for antiplasmodial activity against Plasmodium falciparum W2 infected in RBC assessed as inhibition of parasite growth incubated for 22 days to EC50 for antiplasmodial activity against Plasmodium falciparum W2 infected in RBC assessed as inhibition of parasite growth incubated for 72 hrs. The class given is functional.

Assay [6] concerns Plasmodium falciparum. Nature of the assay: Antimalarial activity against Plasmodium falciparum W2 infected in RBC assessed as parasitemia at 700 nM measured on day 4 by microscopic analysis relative to control. The class given is functional. The conditions noted are these: time 4 day.
Assay [7] has as its system Plasmodium berghei. Nature of the assay: Antimalarial activity against liver stage Plasmodium berghei sporozoites expressing luciferase infected in human HepG2 cells. The class given is functional, organism-based.
In assay [8] the test system is Plasmodium falciparum. Put plainly: Antimalarial activity against chloroquine,pyrimethamine,mefloquine and atovaquine-resistant Plasmodium falciparum TM90-C2B infected in erythroctes incubated for 72 hrs by SYBR green 1 based spectrofluorometer. The class given is functional, organism-based.
The subject of assay [9] is Plasmodium falciparum. Put plainly: Antimalarial activity against chloroquine and pyrimethamine-resistant Plasmodium falciparum W2 infected in erythroctes incubated for 72 hrs by SYBR green 1 based spectrofluorometer. The format is functional, organism-based. Conditions: for EC50: W2, 72 h.
Assay [10] relates to Plasmodium berghei. Put plainly: Antiplasmodial activity against Plasmodium berghei KBG-173 infected in male mouse assessed as inhibition of parasitemia at 50 mg/kg, po administered as single dose on day 1 post exposure and measured on day 6 post exposure relative to control. The class given is functional. The conditions noted are these: KBG-173, 72 h, time 3 day.
Assay [11] deals with Plasmodium falciparum. Put plainly: Antimalarial activity against chloroquine-sensitive Plasmodium falciparum 3D7 infected in erythroctes incubated for 72 hrs by SYBR green 1 based spectrofluorometer. The class given is functional, organism-based, Erythrocyte. The conditions noted are these: erythrocyte.
Assay [12] deals with Plasmodium berghei. Nature of the assay: Antiplasmodial activity against Plasmodium berghei KBG-173 infected in male mouse assessed as inhibition of parasitemia at 50 mg/kg, po administered as single dose on day 1 post exposure and measured on day 3 post exposure relative to control. The class given is functional. The conditions noted are these: KBG-173, 72 h, time 3 day.
In assay [13] the test system is Plasmodium falciparum. Nature of the assay: Antimalarial activity against chloroquine-resistant Plasmodium falciparum K1 infected in erythroctes incubated for 72 hrs by SYBR green 1 based spectrofluorometer. The class given is functional, organism-based, Erythrocyte. Conditions: erythrocyte.

A word on the EC50: it is the concentration that produces a half-maximal response. On to `COc1cc(OC)c(NC(=O)[C@H]2c3ccccc3C(=O)N(CC(C)C)[C@@H]2c2cccs2)cc1Cl`, for which the EC50 in the assay on Plasmodium falciparum [1] is < 50 nM.
For the compound `CCCOC(=O)C1=C(C)NC2=C(C(=O)CC(c3ccc(OC)c(OC)c3)C2)C1c1ccccc1F` (stereo not drawn), in the assay on Plasmodium falciparum [2], the outcome was Active. Further, the EC50 in the assay on Plasmodium falciparum [1] was < 50 nM; in the assay with Plasmodium falciparum [3] it was 2610 nM; with Plasmodium falciparum [4], 8.4 nM. The “Ratio EC50” value in the assay on Plasmodium falciparum [5] was 311. Moreover, the Activity in the assay with Plasmodium falciparum [6] amounted to 0%.
As for `CCOc1ccc(N(C(C)=O)C2=C(N(C)C)C(=O)c3ccccc3C2=O)cc1`, the EC50 in the assay on Plasmodium falciparum [1] is < 50 nM.
Take `CCOC(=O)C1=C(C)NC2=C(C(=O)OC(c3ccc(OC)c(OC)c3)C2)C1c1ccccc1Cl` (stereo in doubt; 3B): in the assay on Plasmodium berghei [7], the result was inactive. In addition, the result in the assay with Plasmodium falciparum [8] and in the assay with Plasmodium falciparum [9] was Active.
For the compound `CCOC(=O)C1=C(C)NC2=C(C(=O)OC(c3ccc(OC)c(OC)c3)C2)C1c1ccc(Cl)cc1` (stereo in doubt; 5B), the outcome in the assay on Plasmodium falciparum [8] and with Plasmodium falciparum [9] was Active.
Turning to `CCOC(=O)C1=C(C)NC2=C(C(=O)OC(c3ccc(OC)c(OC)c3)C2)C1c1ccccc1C` (stereo in doubt; 6B), the result with Plasmodium falciparum [8] and with Plasmodium falciparum [9] was Active.
Broadly, the inhibition in vivo is the share of the control response that was lost under treatment. For the compound `CCCC1=C(C(=O)OCC)C(c2ccccc2Cl)C2=C(CC(c3ccc(OC)c(OC)c3)OC2=O)N1` (stereo in doubt; 32B), the inhibition in vivo at 50 mg/kg in the assay with Plasmodium berghei [10] and with Plasmodium berghei [12] was < 10% in each case. For the same compound, the EC50 with Plasmodium falciparum [11] was 16.1 nM; in the assay with Plasmodium falciparum [13], 9.2 nM; in the assay with Plasmodium falciparum [8], < 100 nM; in the assay with Plasmodium falciparum [9] it was < 100 nM.
With `CCOC(=O)C1=C(C)NC2=C(C(=O)CC(c3ccc(Cl)c(OC)c3)C2)C1c1ccccc1Cl` (stereo in doubt; 39B), the outcome with Plasmodium berghei [7] was inactive.
On to `CCCC1=C(C(=O)OCC)C(c2ccccc2Cl)C2=C(CC(c3ccc(OC)c(OC)c3)CC2=O)N1` (stereo in doubt; 43B), for which the inhibition in vivo at 50 mg/kg in the assay with Plasmodium berghei [10] and in the assay with Plasmodium berghei [12] was < 10% each time. Further, the 50% effective concentration (EC50) came to 0.8 nM in the assay with Plasmodium falciparum [11], 1.3 nM in the assay on Plasmodium falciparum [13], 4.4 nM in the assay on Plasmodium falciparum [8] and 3 nM in the assay on Plasmodium falciparum [9].
Turning to `COCC1=C(C(=O)OC)C(c2ccc(Cl)cc2C)C2=C(CC(c3ccc(OC)c(OC)c3)CC2=O)N1` (stereo in doubt; 51B) [listing 1 of 2 here], the inhibition in vivo at 50 mg/kg was < 10% in the assay with Plasmodium berghei [10] and 100% in the assay with Plasmodium berghei [12]. Moreover, the EC50 was determined as 2.5 nM in the assay on Plasmodium falciparum [11] and 6.2 nM in the assay on Plasmodium falciparum [13].
Regarding `COCC1=C(C(=O)OC)C(c2ccc(Cl)cc2C)C2=C(CC(c3ccc(OC)c(OC)c3)CC2=O)N1` (stereo in doubt; 51B) [listing 2 of 2 here], the outcome with Plasmodium berghei [7] was inactive.
